In ChEMBL document CHEMBL2303647, “Data associated with the publication PLoS ONE, 8(3), e57888, (2013) PMID: 23505445. Compounds: GSK PKIS; Assays: NIH NCATS”:

Assays:
[1] = biological target: T1, Coelenterazine h 2-monooxygenase (Renilla reniformis, UniProt P27652)
T1 sequence (P27652 whole entry): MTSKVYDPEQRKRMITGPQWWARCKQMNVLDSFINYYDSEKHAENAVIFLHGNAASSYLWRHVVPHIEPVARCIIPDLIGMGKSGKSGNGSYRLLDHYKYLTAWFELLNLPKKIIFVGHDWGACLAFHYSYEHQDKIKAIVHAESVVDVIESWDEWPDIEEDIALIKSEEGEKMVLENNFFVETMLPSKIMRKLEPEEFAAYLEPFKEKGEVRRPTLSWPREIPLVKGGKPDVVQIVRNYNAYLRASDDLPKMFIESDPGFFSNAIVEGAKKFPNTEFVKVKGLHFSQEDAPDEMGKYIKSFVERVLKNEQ
Description: GSK_PKIS: Inhibition of Sea Pansy Luciferase (Data from PubChem: AID 652015) [NIH NCATS]

[2] = biological target: Luciferin 4-monooxygenase (Photinus pyralis, UniProt P08659)
Sequence of Luciferin 4-monooxygenase (P08659 whole entry): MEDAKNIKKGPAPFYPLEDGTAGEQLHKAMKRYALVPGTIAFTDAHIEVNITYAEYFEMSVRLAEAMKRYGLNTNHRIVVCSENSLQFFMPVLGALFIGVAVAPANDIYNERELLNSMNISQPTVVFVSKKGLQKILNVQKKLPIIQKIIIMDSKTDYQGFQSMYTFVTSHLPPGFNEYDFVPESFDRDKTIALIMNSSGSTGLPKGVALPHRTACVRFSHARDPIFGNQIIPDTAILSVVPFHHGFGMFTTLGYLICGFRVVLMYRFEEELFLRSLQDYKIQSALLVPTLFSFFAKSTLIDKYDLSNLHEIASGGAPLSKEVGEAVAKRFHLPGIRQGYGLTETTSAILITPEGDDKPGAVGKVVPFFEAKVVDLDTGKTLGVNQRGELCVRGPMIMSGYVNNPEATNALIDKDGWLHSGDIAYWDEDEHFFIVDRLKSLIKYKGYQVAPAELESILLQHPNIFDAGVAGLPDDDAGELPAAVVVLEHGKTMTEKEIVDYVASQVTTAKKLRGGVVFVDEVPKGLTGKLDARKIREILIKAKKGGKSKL
Description: GSK_PKIS: Inhibition of Firefly Luciferase (Data from PubChem: AID 652016) [NIH NCATS]

AC50 ([2]; read-out: AC50) | AC50 ([1]; read-out: AC50) | Structure (SMILES) | AC50 [1] | AC50 [2]
 |  | COc1cc(N2CCN(C(C)C)CC2)ccc1Nc1nc(Nc2ccc(F)cc2C(=O)NC[C@@H](O)CO)c2cc[nH]c2n1 [GSK-1392956A] | Phenotype: Inactive; Curve_Description: None | Phenotype: Inactive; Curve_Description: None
41.1 µM |  | Cc1nnc(-c2ccc(C)c(-c3ccc(C(=O)Nc4cccc(C#N)c4)cc3)c2)o1 [GW607117X] | Phenotype: Inactive; Curve_Description: None | 
 |  | N#Cc1cccc(Nc2nccc(-c3cnn4ncccc34)n2)c1 [GW778894X] | Phenotype: Inactive; Curve_Description: None | Phenotype: Inactive; Curve_Description: None
36.6 µM |  | CN1CCC(n2cnc(-c3ccc(F)cc3)c2-c2ccnc(NCCO)n2)CC1 | Phenotype: Inactive; Curve_Description: None | 
29.1 µM | 20.6 µM | Nc1nc(-c2ccc3c(c2)C(=Cc2cc(Br)c(O)c(Br)c2)C(=O)N3)cs1 [GW407323A] |  | 
 |  | Nc1nonc1-c1nc2cnccc2n1C1CCCCC1 | Phenotype: Inactive; Curve_Description: None | Phenotype: Inactive; Curve_Description: None
18.3 µM |  | O=C1Nc2ccccc2/C1=C/Nc1ccc(-n2cncn2)cc1 [GW301789X] | Phenotype: Inactive; Curve_Description: None | 
29.1 µM |  | CN(C)C(=O)O[C@H]1CN[C@H](C#Cc2cc3ncnc(Nc4ccc(OCc5cccc(F)c5)c(Cl)c4)c3s2)C1 [GSK-182497A] | Phenotype: Inactive; Curve_Description: None | 
 | 23.1 µM | COc1cc2ncn(-c3cc(OCc4ccccc4C(F)(F)F)c(C(=O)N(C)C)s3)c2cc1OC [GSK-1030062A] |  | Phenotype: Inactive; Curve_Description: None
 | 32.6 µM | CCCN1CCCC(c2ccc(Nc3nc(Nc4cc(F)ccc4C(N)=O)c4cc[nH]c4n3)c(OC)c2)C1 (stereo unspecified) [GSK-1173862A] |  | Phenotype: Inactive; Curve_Description: None
 |  | CCn1c(-c2nonc2N)nc2c(C#CC(C)(C)O)ncc(OCC3CCNCC3)c21.O=C(O)C(F)(F)F [GSK-554170A] | Phenotype: Inactive; Curve_Description: None | Phenotype: Inactive; Curve_Description: None
 |  | N#Cc1ccc(Oc2nccc(-c3c(-c4ccc(F)cc4)ncn3C3CCNCC3)n2)cc1 | Phenotype: Inactive; Curve_Description: None | Phenotype: Inactive; Curve_Description: None
 | 18.3 µM | CCCN1CCC(c2ccc(Nc3nc(Nc4cc(F)ccc4C(N)=O)c4cc[nH]c4n3)c(OC)c2)CC1 [GSK-1326255A] |  | Phenotype: Inactive; Curve_Description: None
1.16 µM | 23.1 µM | Fc1ccc(-c2nn3ccccc3c2-c2ccncc2)cc1 [GW434756X] |  | 
41.1 µM |  | Cc1ccc2c(-c3ccnc(Nc4cccc(C(F)(F)F)c4)n3)c(-c3ccccc3)nn2n1 [GW829906X] | Phenotype: Inactive; Curve_Description: None | 
 | 29.1 µM | CCn1c(-c2nonc2N)nc2c(C#CC(C)(C)O)nc(OC[C@@H](N)c3ccccc3)cc21 [GSK-938890A] |  | Phenotype: Inactive; Curve_Description: None
2.31 µM |  | COc1ccc(-c2ccc3c(NC(=O)C4CC4)n[nH]c3n2)cc1 | Phenotype: Inactive; Curve_Description: None | 

AC50 ([2]; read-out: AC50) | AC50 ([1]; read-out: AC50) | Structure (SMILES) | AC50 [1] | AC50 [2]
3.66 µM |  | C/C(Nc1ccc(S(N)(=O)=O)cc1)=C1/C(=O)Nc2ccccc21 [GW335962X] | Phenotype: Inactive; Curve_Description: None | 
 |  | Cl.Fc1cccc(COc2ccc(Nc3ncnc4cc(-c5ccc[nH]5)sc34)cc2Cl)c1 [GW693881A] | Phenotype: Inactive; Curve_Description: None | Phenotype: Inactive; Curve_Description: None
 |  | Nc1ncnc2occ(-c3ccc(NC(=O)Nc4cc(C(F)(F)F)ccc4F)cc3)c12 [GW770249X] | Phenotype: Inactive; Curve_Description: None | Phenotype: Inactive; Curve_Description: None
 |  | CN1CCC(n2cnc(-c3ccc(F)cc3)c2-c2ccnc(Nc3ccccc3)n2)CC1 | Phenotype: Inactive; Curve_Description: None | Phenotype: Inactive; Curve_Description: None
32.6 µM |  | CCc1cccc(NC(=O)Nc2ccc(Oc3ccc4nc(NC(=O)OC)[nH]c4c3)cc2)c1 [GW673715X] | Phenotype: Inactive; Curve_Description: None | 
 |  | FC(F)(F)c1cccc(Nc2nccc(-c3cnn4nc(-c5ccccc5)ccc34)n2)c1 [GW819077X] | Phenotype: Inactive; Curve_Description: None | Phenotype: Inactive; Curve_Description: None
0.259 µM |  | c1ccc(Nc2ncc(-c3ccccc3)o2)cc1 [GW549390X] | Phenotype: Inactive; Curve_Description: None | 
 |  | CC1=C(C(=O)Nc2ccc3[nH]ncc3c2)C(c2ccc(F)cc2)NC(=O)N1 (stereo unspecified) [GSK-180736A] | Phenotype: Inactive; Curve_Description: None | Phenotype: Inactive; Curve_Description: None
16.3 µM |  | COC(=O)Nc1nc2cc(Oc3cccc(NC(=O)Nc4cc(C(F)(F)F)ccc4F)c3)ccc2[nH]1.Cl [GW659386A] | Phenotype: Inactive; Curve_Description: None | 
 |  | Cc1cc(O)cc(C)c1/C=C/c1cncc(C(=O)OC(C)(C)C)c1 [GW439255X] | Phenotype: Inactive; Curve_Description: None | Phenotype: Inactive; Curve_Description: None
 | 20.6 µM | CCn1c(-c2nonc2N)nc2c(C#CC(C)(C)O)nc(OCCNC)cc21.Cl [GSK-949675A] |  | Phenotype: Inactive; Curve_Description: None
 |  | CS(=O)(=O)CCNCc1ccc(-c2ccc3ncnc(Nc4ccc(OCc5cccc(F)c5)c(C(F)(F)F)c4)c3c2)o1 [GW576484X] | Phenotype: Inactive; Curve_Description: None | Phenotype: Inactive; Curve_Description: None
 |  | Nc1nonc1-c1nc2cnccc2n1C1CC1 | Phenotype: Inactive; Curve_Description: None | Phenotype: Inactive; Curve_Description: None
32.6 µM |  | Nc1nc(-c2ccccn2)c(-c2ccc3ncccc3n2)s1 [GW693481X] | Phenotype: Inactive; Curve_Description: None | 
 |  | NC(=O)c1sc(-n2cnc3cc(C(F)(F)F)ccc32)cc1OCc1ccccc1Br [GW853609X] | Phenotype: Inactive; Curve_Description: None | Phenotype: Inactive; Curve_Description: None
11.6 µM |  | Cl.NS(=O)(=O)c1cccc(Nc2cc(-c3ccc(F)cc3)n[nH]2)c1 [GW824645A] | Phenotype: Inactive; Curve_Description: None | 
 |  | Fc1ccc(-c2c(-c3ccncc3)nc3n2CCS3)cc1 | Phenotype: Inactive; Curve_Description: None | Phenotype: Inactive; Curve_Description: None

Structure (SMILES) | AC50 ([2]; read-out: AC50) | AC50 ([1]; read-out: AC50) | AC50 [1] | AC50 [2]
CNC(=O)Oc1cc(C)c(/C=C/c2cncc(C(=O)NC)c2)c(C)c1 [GW432441X] | 29.1 µM |  | Phenotype: Inactive; Curve_Description: None | 
NS(=O)(=O)c1ccc(N/N=C2\C(=O)Nc3ccc(C(=O)NCCc4c[nH]cn4)cc32)cc1 [GW300660X] |  | 16.3 µM |  | Phenotype: Inactive; Curve_Description: None
CCN1CCC(CC(=O)Nc2n[nH]c3nc(-c4cccs4)c(Br)cc23)CC1.O=C(O)C(O)C(O)C(=O)O |  | 29.1 µM |  | Phenotype: Inactive; Curve_Description: None
O=C1Nc2ccc(I)cc2C1=Cc1cc(Br)c(O)c(Br)c1 [GW305074X] |  | 20.6 µM |  | Phenotype: Inactive; Curve_Description: None
